Measured values published in PubChem BioAssay AID256 (DTP/NCI, 2004).
Where “and” joins values, the source holds several entries; their conditions need not be identical. Equal entries are not always repeated. Inconclusive results and toxic doses are left out. How the source made its calls: active means survival T/C of 150% or more; inactive means T/C below 125% in these data.

Test system: CD2F1 mice, L1210 leukemia ip, survival T/C
Assay: NCI In Vivo Anticancer Drug Screen. Data for tumor model L1210 Leukemia (intraperitoneal) in CD2F1 (CDF1) mice
Details: higher = longer survival
Procedure, shortened: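 Implant tumor; dose compound or vehicle; measure endpoint in both groups; report treated divided by control.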

[1] = endpoint: mean survival time, dose: 100.0 mg/kg/injection, schedule: Q01DX001 (ip), vehicle: saline with Tween-80
[2] = endpoint: mean survival time, dose: 50.0 mg/kg/injection, schedule: Q04DX002 (ip), vehicle: saline with Tween-80
[3] = endpoint: mean survival time, dose: 100.0 mg/kg/injection, schedule: Q01DX009 (ip), vehicle: saline with Tween-80
[4] = endpoint: mean survival time, dose: 200.0 mg/kg/injection, schedule: Q01DX009 (ip), vehicle: saline with Tween-80
[5] = endpoint: mean survival time, dose: 400.0 mg/kg/injection, schedule: Q01DX009 (ip), vehicle: saline with Tween-80
[6] = endpoint: mean survival time, dose: 100.0 mg/kg/injection, schedule: Q04DX002 (ip), vehicle: saline with Tween-80
[7] = endpoint: mean survival time, dose: 200.0 mg/kg/injection, schedule: Q04DX002 (ip), vehicle: saline with Tween-80
[8] = endpoint: mean survival time, dose: 400.0 mg/kg/injection, schedule: Q04DX002 (ip), vehicle: saline with Tween-80
[9] = endpoint: mean survival time, dose: 100.0 mg/kg/injection, schedule: Q01DX001 (ip), vehicle: saline
[10] = endpoint: mean survival time, dose: 50.0 mg/kg/injection, schedule: Q01DX009 (ip), vehicle: Klucel (hydroxypropylcellulose) (HPC)
[11] = endpoint: mean survival time, dose: 100.0 mg/kg/injection, schedule: Q04DX003 (ip), vehicle: saline with Tween-80
[12] = endpoint: mean survival time, dose: 25.0 mg/kg/injection, schedule: Q04DX003 (ip), vehicle: saline
[13] = endpoint: mean survival time, dose: 50.0 mg/kg/injection, schedule: Q04DX003 (ip), vehicle: saline
[14] = endpoint: mean survival time, dose: 200.0 mg/kg/injection, schedule: Q01DX001 (ip), vehicle: saline

Measured: T/C

COC1OC(CO)C(OC)C(OC)C1NC(C)=O (stereo not given)
inactive: endpoint: mean survival time, dose: 100.0 mg/kg/injection, schedule: Q01DX001 (ip), vehicle: saline + alcohol 101 % of control | endpoint: mean survival time, dose: 200.0 mg/kg/injection, schedule: Q01DX001 (ip), vehicle: saline + alcohol 103 % of control | endpoint: mean survival time, dose: 400.0 mg/kg/injection, schedule: Q01DX001 (ip), vehicle: saline + alcohol 97 % of control

c1ccc(CN2CCC(Nc3ccccc3)(c3nnnn3C3CCCCC3)CC2)cc1
inactive: [1] 95 % of control | endpoint: mean survival time, dose: 200.0 mg/kg/injection, schedule: Q01DX001 (ip), vehicle: saline with Tween-80 96 % of control | endpoint: mean survival time, dose: 400.0 mg/kg/injection, schedule: Q01DX001 (ip), vehicle: saline with Tween-80 90 % of control

Cc1ccc(C23CC4CC(CC(C4)C2)C3)cc1
inactive: endpoint: mean survival time, dose: 12.5 mg/kg/injection, schedule: Q04DX002 (ip), vehicle: saline with Tween-80 101 % of control | endpoint: mean survival time, dose: 25.0 mg/kg/injection, schedule: Q04DX002 (ip), vehicle: saline with Tween-80 93 % of control | [2] 96 % of control

O=S(=O)(Oc1ccc(OS(=O)(=O)c2ccccc2)cc1)c1ccccc1
inactive: [3] 96 % of control | [4] 98 % of control | [5] 107 % of control

CSc1ccccc1C1=CCCCC1
inactive: endpoint: mean survival time, dose: 100.0 mg/kg/injection, schedule: Q04DX003 (ip), vehicle: saline 95 % of control | endpoint: mean survival time, dose: 200.0 mg/kg/injection, schedule: Q04DX003 (ip), vehicle: saline 93 % of control | endpoint: mean survival time, dose: 400.0 mg/kg/injection, schedule: Q04DX003 (ip), vehicle: saline 98 % of control

Cc1cc(C)c(NC(=O)/C=C/c2ccccc2)c(C)c1
inactive: [6] 96 % of control | [7] 89 % of control | [8] 96 % of control

COc1ccc(OC)c(NC(=O)Nc2ccc(NC(C)=O)cc2)c1
inactive: [3] 91 % of control | [4] 95 % of control | [5] 91 % of control

CN(C)C=Nc1ccc(C#N)cc1
inactive: endpoint: mean survival time, dose: 50.0 mg/kg/injection, schedule: Q01DX001 (ip), vehicle: saline 97 % of control | [9] 97 % of control

CCOc1ccc(Br)cc1/C=N/NS(=O)(=O)c1ccc(C)cc1
inactive: endpoint: mean survival time, dose: 25.0 mg/kg/injection, schedule: Q01DX009 (ip), vehicle: saline with Tween-80 111 % of control | endpoint: mean survival time, dose: 50.0 mg/kg/injection, schedule: Q01DX009 (ip), vehicle: saline with Tween-80 114 % of control | [3] 113 % of control

CCOCCC#N
inactive: [10] 102 % of control | endpoint: mean survival time, dose: 100.0 mg/kg/injection, schedule: Q01DX009 (ip), vehicle: Klucel (hydroxypropylcellulose) (HPC) 102 % of control | endpoint: mean survival time, dose: 200.0 mg/kg/injection, schedule: Q01DX009 (ip), vehicle: Klucel (hydroxypropylcellulose) (HPC) 102 % of control

COc1cc2c(cc1OC)-c1cc(C)c3cc(OC)c(OC)cc3[n+]1CC2
inactive: endpoint: mean survival time, dose: 25.0 mg/kg/injection, schedule: Q01DX009 (ip), vehicle: other 109 % of control | endpoint: mean survival time, dose: 50.0 mg/kg/injection, schedule: Q01DX009 (ip), vehicle: other 115 % of control | endpoint: mean survival time, dose: 100.0 mg/kg/injection, schedule: Q01DX009 (ip), vehicle: other 109 % of control

Cc1oc([N+](=O)[O-])c(C)c1C(=O)O
inactive: [2] 101 % of control | [6] 97 % of control | [7] 104 % of control

COc1cc(C2=N/C(=C\c3ccc(C(C)C)cc3)C(=O)O2)cc(OC)c1OC
inactive: [6] 90 % of control | [7] 90 % of control | [8] 94 % of control

CCOC(=O)Nc1ccc(F)cc1C
inactive: [11] 97 % of control | endpoint: mean survival time, dose: 200.0 mg/kg/injection, schedule: Q04DX003 (ip), vehicle: saline with Tween-80 97 % of control | endpoint: mean survival time, dose: 400.0 mg/kg/injection, schedule: Q04DX003 (ip), vehicle: saline with Tween-80 95 % of control

CC1C(=O)OC2C1CCC1(C)C=CC(=O)C3(C)OC213 (stereo not given)
inactive: [6] 108 % of control and 104 % of control | [7] 108 % of control and 124 % of control | [8] 120 % of control

O=C(O)c1cn(C2OC(CO)C(O)C2O)c2nc[nH]c(=O)c12 (stereo not given)
inactive: endpoint: median survival time, dose: 8.63 mg/kg/injection, schedule: Q01DX005 (ip), vehicle: saline with Tween-80 103 % of control | endpoint: median survival time, dose: 17.25 mg/kg/injection, schedule: Q01DX005 (ip), vehicle: saline with Tween-80 101 % of control | endpoint: median survival time, dose: 34.5 mg/kg/injection, schedule: Q01DX005 (ip), vehicle: saline with Tween-80 108 % of control | endpoint: median survival time, dose: 69.0 mg/kg/injection, schedule: Q01DX005 (ip), vehicle: saline with Tween-80 104 % of control | endpoint: median survival time, dose: 138.0 mg/kg/injection, schedule: Q01DX005 (ip), vehicle: saline with Tween-80 110 % of control

Oc1ccccc1OCCOCCOc1ccccc1O
inactive: endpoint: mean survival time, dose: 50.0 mg/kg/injection, schedule: Q04DX002 (ip), vehicle: other 100 % of control | endpoint: mean survival time, dose: 100.0 mg/kg/injection, schedule: Q04DX002 (ip), vehicle: other 88 % of control | endpoint: mean survival time, dose: 200.0 mg/kg/injection, schedule: Q04DX002 (ip), vehicle: other 103 % of control | endpoint: mean survival time, dose: 400.0 mg/kg/injection, schedule: Q04DX002 (ip), vehicle: other 103 % of control

CN(C)/N=C\c1ccc([N+](C)(C)C)cc1
inactive: endpoint: mean survival time, dose: 12.5 mg/kg/injection, schedule: Q04DX003 (ip), vehicle: Klucel (hydroxypropylcellulose) (HPC) 103 % of control | endpoint: mean survival time, dose: 25.0 mg/kg/injection, schedule: Q04DX003 (ip), vehicle: Klucel (hydroxypropylcellulose) (HPC) 109 % of control | endpoint: mean survival time, dose: 50.0 mg/kg/injection, schedule: Q04DX003 (ip), vehicle: Klucel (hydroxypropylcellulose) (HPC) 106 % of control

c1ccc2c(c1)CC1CCCCN1C2 (stereo not given)
inactive: endpoint: mean survival time, dose: 12.5 mg/kg/injection, schedule: Q01DX009 (ip), vehicle: Klucel (hydroxypropylcellulose) (HPC) 94 % of control | endpoint: mean survival time, dose: 12.5 mg/kg/injection, schedule: Q04DX003 (ip), vehicle: saline 95 % of control | endpoint: mean survival time, dose: 25.0 mg/kg/injection, schedule: Q01DX009 (ip), vehicle: Klucel (hydroxypropylcellulose) (HPC) 100 % of control | [12] 93 % of control | [10] 97 % of control | [13] 95 % of control

COc1cc2nc(/C=C/c3nc4cc(OC)c(OC)cc4[nH]3)[nH]c2cc1OC
inactive: [1] 106 % of control

c1cc(-n2nnc3cnccc32)ccn1
inactive: [12] 102 % of control | [13] 104 % of control

OC(CCl)Cc1ccccc1 (stereo not given)
inactive: [11] 95 % of control

CCOC(=O)C(C)(C)C(OP(=O)(OCC)OCC)=C(C)C
inactive: endpoint: mean survival time, dose: 75.0 mg/kg/injection, schedule: Q01DX001 (ip), vehicle: saline 103 % of control | endpoint: mean survival time, dose: 150.0 mg/kg/injection, schedule: Q01DX001 (ip), vehicle: saline 97 % of control | endpoint: mean survival time, dose: 300.0 mg/kg/injection, schedule: Q01DX001 (ip), vehicle: saline 100 % of control

N#CCCN1CCS(=O)(=O)C1=O
inactive: endpoint: mean survival time, dose: 19.0 mg/kg/injection, schedule: Q01DX001 (ip), vehicle: other 107 % of control | endpoint: mean survival time, dose: 38.0 mg/kg/injection, schedule: Q01DX001 (ip), vehicle: other 115 % of control | endpoint: mean survival time, dose: 75.0 mg/kg/injection, schedule: Q01DX001 (ip), vehicle: other 112 % of control | endpoint: mean survival time, dose: 150.0 mg/kg/injection, schedule: Q01DX001 (ip), vehicle: other 117 % of control and 109 % of control

COC(=O)c1ccccc1NC1OC(CO)C(O)C1O (stereo not given)
inactive: [9] 101 % of control | [14] 92 % of control | endpoint: mean survival time, dose: 400.0 mg/kg/injection, schedule: Q01DX001 (ip), vehicle: saline 91 % of control

O/N=C/c1ccc(O)cc1O
inactive: [9] 100 % of control | [14] 102 % of control

Nc1nc(N)c2c(ccc3c2ccn3Cc2cccc([N+](=O)[O-])c2)n1
inactive: endpoint: median survival time, dose: 0.75 mg/kg/injection, schedule: Q01DX009 (ip), vehicle: saline with Tween-80 104 % of control | endpoint: median survival time, dose: 1.5 mg/kg/injection, schedule: Q01DX009 (ip), vehicle: saline with Tween-80 111 % of control | endpoint: median survival time, dose: 1.56 mg/kg/injection, schedule: Q01DX009 (ip), vehicle: saline with Tween-80 110 % of control | endpoint: median survival time, dose: 3.0 mg/kg/injection, schedule: Q01DX009 (ip), vehicle: saline with Tween-80 117 % of control | endpoint: median survival time, dose: 3.12 mg/kg/injection, schedule: Q01DX009 (ip), vehicle: saline with Tween-80 118 % of control | endpoint: median survival time, dose: 12.5 mg/kg/injection, schedule: Q01DX009 (ip), vehicle: saline with Tween-80 90 % of control and 98 % of control | endpoint: median survival time, dose: 25.0 mg/kg/injection, schedule: Q01DX009 (ip), vehicle: saline with Tween-80 102 % of control and 103 % of control
